The results in this text go back to patent US10538498B2, “1,3,4-oxadiazole sulfonamide derivative compounds as histone deacetylase 6 inhibitor, and the pharmaceutical composition comprising the same” (Chong Kun Dang Pharmaceutical Corp., priority 2015, dated 2020).

One may read the IC50 as the concentration at which inhibition is half-maximal.

The structures appear in SMILES notation.

The target of assay [1] is T1, human recombinant HDAC1 (Homo sapiens, UniProt Q13547).
T1 construct: purchased Enzo Life Science BML-SE456
T1 sequence (Q13547 whole entry): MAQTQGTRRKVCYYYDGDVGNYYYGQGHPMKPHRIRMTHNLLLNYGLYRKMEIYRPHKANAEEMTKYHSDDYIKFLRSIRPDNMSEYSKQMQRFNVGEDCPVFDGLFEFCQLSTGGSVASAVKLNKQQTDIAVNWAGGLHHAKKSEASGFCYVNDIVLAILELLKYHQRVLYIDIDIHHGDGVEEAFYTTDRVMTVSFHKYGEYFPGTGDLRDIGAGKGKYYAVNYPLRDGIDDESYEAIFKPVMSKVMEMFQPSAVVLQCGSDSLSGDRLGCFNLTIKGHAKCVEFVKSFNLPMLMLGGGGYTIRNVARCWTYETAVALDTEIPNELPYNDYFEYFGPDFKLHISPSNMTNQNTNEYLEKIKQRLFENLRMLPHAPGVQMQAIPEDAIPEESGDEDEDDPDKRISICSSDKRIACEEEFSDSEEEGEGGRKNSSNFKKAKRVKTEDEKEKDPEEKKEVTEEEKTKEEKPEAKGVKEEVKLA
Nature of the assay: HDAC1 enzyme activity inhibition assay (HDAC Fluorimetric Drug Discovery Kit). It is filed as biochemical. As to conditions: 0.3 μg enzyme, 10 μM substrate, 30° C., 60 minutes. On the procedure:
In order to examine the HDAC6 selectivity of the compounds of formula I of the present invention by HDAC1 and HDAC6 enzymatic activity inhibition assays, an experiment was performed using a conventional substance as a control.
HDAC enzyme activity was measured using a HDAC Fluorimetric Drug Discovery Kit (BML-AK511, 516, Enzo Life Science). For the HDAC1 enzyme activity test, human recombinant HDAC1 (BML-SE456) was used as an enzyme source, and Fluor de Lys®-“SIRT1 (BNL-KI177) was used as a substrate. A 5-fold dilution of the compound was seeded into a 96-well plate, and then 0.3 μg of the enzyme and 10 μM of the substrate were added to each well of the plate and allowed to react at 30° C. for 60 minutes. Then, Fluor de Lys®-Developer II (BML-KI176) was added thereto and allowed to react for 30 minutes, after which the fluorescence value (Ex 360, Em 460) was measured using a multi-plate reader (Flexstation 3, Molecular Device). The HDAC6 enzyme was tested using human recombinant HDAC6 (382180) (Calbiochem) according to the same protocol as the HDAC1 enzyme activity test method. Based on the resulting values, each IC50 value was calculated using GraphPad Prism4.0 program.

The target of assay [2] is T2, human recombinant HDAC6 (Homo sapiens, UniProt Q9UBN7).
T2 construct: purchased Calbiochem 382180
T2 sequence (Q9UBN7 1-1215): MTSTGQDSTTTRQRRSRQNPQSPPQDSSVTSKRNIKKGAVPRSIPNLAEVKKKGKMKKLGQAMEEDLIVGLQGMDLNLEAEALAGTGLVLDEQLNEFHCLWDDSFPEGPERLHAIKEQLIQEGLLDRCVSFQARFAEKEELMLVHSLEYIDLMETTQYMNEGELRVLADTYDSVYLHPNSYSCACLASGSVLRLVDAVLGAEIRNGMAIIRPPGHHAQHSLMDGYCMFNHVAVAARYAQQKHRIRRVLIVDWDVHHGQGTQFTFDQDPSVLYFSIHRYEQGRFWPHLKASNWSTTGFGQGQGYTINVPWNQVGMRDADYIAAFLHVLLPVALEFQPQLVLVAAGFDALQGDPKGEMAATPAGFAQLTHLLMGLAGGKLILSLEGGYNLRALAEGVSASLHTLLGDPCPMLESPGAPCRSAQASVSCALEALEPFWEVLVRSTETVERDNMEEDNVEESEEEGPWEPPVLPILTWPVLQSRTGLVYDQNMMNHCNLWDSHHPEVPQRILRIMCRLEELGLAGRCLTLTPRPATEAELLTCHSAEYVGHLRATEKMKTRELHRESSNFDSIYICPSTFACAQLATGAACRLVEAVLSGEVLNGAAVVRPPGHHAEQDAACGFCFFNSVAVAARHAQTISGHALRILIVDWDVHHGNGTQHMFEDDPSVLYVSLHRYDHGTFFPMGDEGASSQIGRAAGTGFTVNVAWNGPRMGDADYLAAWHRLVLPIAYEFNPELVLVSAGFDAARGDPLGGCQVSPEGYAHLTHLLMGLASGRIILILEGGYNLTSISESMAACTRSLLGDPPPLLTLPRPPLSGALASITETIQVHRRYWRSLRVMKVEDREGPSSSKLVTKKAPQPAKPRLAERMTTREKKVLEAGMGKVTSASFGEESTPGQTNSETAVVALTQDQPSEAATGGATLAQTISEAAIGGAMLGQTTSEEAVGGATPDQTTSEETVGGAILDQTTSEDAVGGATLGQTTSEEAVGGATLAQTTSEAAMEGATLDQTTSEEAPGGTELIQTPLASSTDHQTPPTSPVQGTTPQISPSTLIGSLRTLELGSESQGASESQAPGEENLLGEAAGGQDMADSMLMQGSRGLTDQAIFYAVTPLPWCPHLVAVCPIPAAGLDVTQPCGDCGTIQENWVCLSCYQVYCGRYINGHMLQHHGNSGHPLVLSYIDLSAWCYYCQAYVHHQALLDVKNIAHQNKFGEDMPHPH
Nature of the assay: HDAC6 enzyme activity inhibition assay (HDAC Fluorimetric Drug Discovery Kit). It is filed as biochemical. As to conditions: for HDAC6 selectivity (fold): HDAC1 vs HDAC6; for IC50: same protocol as the HDAC1 enzyme activity test. In outline: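 Recombinant enzyme (0.3 μg) was incubated with 5-fold serially diluted compound and 10 μM Fluor de Lys-SIRT1 substrate for 60 min at 30° C. Developer II was then added for 30 min, fluorescence read at Ex 360/Em 460, and IC50 values were calculated.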

As to `CS(=O)(=O)N(Cc1ccc(-c2nnc(C(F)(F)F)o2)cc1F)c1ccc(C(F)(F)F)cc1` [Compound 11220, N-(2-fluoro-4-(5-(trifluoromethyl)-1,3,4-oxadiazol-2-yl)benzyl)-N-(4-(trifluoromethyl)phenyl)methanesulfonamide], the IC50 in assay [1] came to 26.2 µM. For the same molecule, in assay [2], the “HDAC6 selectivity (fold)” value is on record as 845 fold and the IC50 was found to be 31 nM.
`O=C(CO)N1CC(N2CCC(S(=O)(=O)N(Cc3ccc(-c4nnc(C(F)F)o4)cc3F)c3ccc(F)c(Cl)c3)CC2)C1` [Compound 11452, N-(3-chloro-4-fluorophenyl)-N-(4-(5-(difluoromethyl)-1,3,4-oxadiazol-2-yl)-2-fluorobenzyl)-1-(1-(2-hydroxyacetyl)azetidin-3-yl)piperidine-4-sulfonamide]: the figures for the IC50 in assay [1] and in assay [2] were 27.5 µM and 8 nM, respectively. In addition, the “HDAC6 selectivity (fold)” value in assay [2] is 3439 fold.
Regarding `COc1ccc(N(Cc2ccc(-c3nnc(C(F)(F)F)o3)cc2F)S(C)(=O)=O)cc1` [Compound 11192, N-(2-fluoro-4-(5-(trifluoromethyl)-1,3,4-oxadiazol-2-yl)benzyl)-N-(4-methoxyphenyl)methanesulfonamide], the IC50 in assay [1] came out at 7 µM. In assay [2], the “HDAC6 selectivity (fold)” value turned out to be 108 fold and the IC50 worked out at 65 nM.
Regarding `O=C(OCCCS(=O)(=O)N(Cc1ccc(-c2nnc(C(F)F)o2)cc1)c1ccccc1)C(F)F` [Compound 11709, 3-(N-(4-(5-(difluoromethyl)-1,3,4-oxadiazol-2-yl)benzyl)-N-phenylsulfamoyl)propyl 2,2-difluoroacetate], the IC50 in assay [1] is 80.4 µM. For the same molecule, in assay [2], the “HDAC6 selectivity (fold)” value is 1065 fold and the half-maximal inhibitory concentration (IC50) was determined as 75.5 nM.
Turning to `O=S(=O)(CCCN1CCCC1)N(Cc1ccc(-c2nnc(C(F)F)o2)cc1)c1ccccc1` [Compound 11647, N-(4-(5-(difluoromethyl)-1,3,4-oxadiazol-2-yl)benzyl)-N-phenyl-3-(pyrrolidin-1-yl)propane-1-sulfonamide], the IC50 in assay [1] came out at 79.8 µM. Moreover, in assay [2], the “HDAC6 selectivity (fold)” value worked out at 3626 fold and the concentration for half-maximal inhibition (IC50) was 22 nM.
Turning to `CS(=O)(=O)N(Cc1ccc(-c2nnc(C(F)(F)F)o2)cc1F)c1cccnc1` [Compound 11089, N-(2-fluoro-4-(5-(trifluoromethyl)-1,3,4-oxadiazol-2-yl)benzyl)-N-(pyridin-3-yl)methanesulfonamide], the results for the IC50 in assay [1] and in assay [2] were 47.9 µM and 50 nM, respectively. In assay [2], the “HDAC6 selectivity (fold)” value is recorded as 957 fold.
In the same order, the values of `CS(=O)(=O)N1CCN(CCCS(=O)(=O)N(Cc2ccc(-c3nnc(C(F)F)o3)cc2)c2ccccc2)CC1` [Compound 11648, N-(4-(5-(difluoromethyl)-1,3,4-oxadiazol-2-yl)benzyl)-3-(4-(methylsulfonyl)piperazin-1-yl)-N-phenylpropane-1-sulfonamide] are 498 µM, 60 nM and 8300 fold.
With `CS(=O)(=O)N(Cc1ccc(-c2nnc(C(F)F)o2)c(F)c1)c1ccccc1` [Compound 11184, N-(4-(5-(difluoromethyl)-1,3,4-oxadiazol-2-yl)-3-fluorobenzyl)-N-phenylmethanesulfonamide], in assay [1], the IC50 was found to be 2.27 µM. For the same molecule, in assay [2], the “HDAC6 selectivity (fold)” value was found to be 63 fold and the half-inhibitory concentration (IC50) stood at 36 nM.
Consider `O=S(=O)(C1CCN([C@H]2CC[C@H](F)CC2)CC1)N(Cc1ccc(-c2nnc(C(F)F)o2)cn1)c1cccc(Cl)c1` [Compound 11727, N-(3-chlorophenyl)-N-((5-(5-(difluoromethyl)-1,3,4-oxadiazol-2-yl)pyridin-2-yl)methyl)-1-((1r,4r)-4-fluorocyclohexyl)piperidine-4-sulfonamide], for which the IC50 in assay [1] amounted to 33.5 µM. In addition, in assay [2], the “HDAC6 selectivity (fold)” value is 594 fold and the IC50 amounted to 56.3 nM.
As to `CS(=O)(=O)N(Cc1ccc(-c2nnc(C(F)(F)F)o2)cc1F)c1ccc2c(c1)OCO2` [Compound 11226, N-(benzo[d][1,3]dioxol-5-yl)-N-(2-fluoro-4-(5-(trifluoromethyl)-1,3,4-oxadiazol-2-yl)benzyl)methanesulfonamide], the IC50 in assay [1] amounted to 11.6 µM; in assay [2], 39 nM. Besides, the “HDAC6 selectivity (fold)” value in assay [2] is 297 fold.
Turning to `CS(=O)(=O)N(Cc1ccc(-c2nnc(C(F)(F)F)o2)cn1)c1cccc(F)c1` [Compound 11216, N-(3-fluorophenyl)-N-((5-(5-(trifluoromethyl)-1,3,4-oxadiazol-2-yl)pyridin-2-yl)methyl)methanesulfonamide], the IC50 in assay [1] stood at 28 µM. Also, in assay [2], the “HDAC6 selectivity (fold)” value is 368 fold and the IC50 turned out to be 76 nM.
In the case of `Cc1cccc(N(Cc2ccc(-c3nnc(C(F)F)o3)cn2)S(=O)(=O)C2CCN(C3CC4CCC3C4)CC2)c1` (stereo not drawn) [Compound 11686, 1-(bicyclo[2.2.1]heptan-2-yl)-N-((5-(5-(difluoromethyl)-1,3,4-oxadiazol-2-yl)pyridin-2-yl)methyl)-N-(m-tolyl)piperidine-4-sulfonamide], the IC50 in assay [1] stood at 60.3 µM. Further, in assay [2], the “HDAC6 selectivity (fold)” value stood at 654 fold and the IC50 is 92.1 nM.
Regarding `CS(=O)(=O)N(Cc1ccc(-c2nnc(C(F)(F)F)o2)nn1)c1ccccc1` [Compound 11567, N-phenyl-N-((6-(5-(trifluoromethyl)-1,3,4-oxadiazol-2-yl)pyridazin-3-yl)methyl)methanesulfonamide], the IC50 is 30.9 µM in assay [1] and 4330 nM in assay [2]. Further, the “HDAC6 selectivity (fold)” value in assay [2] turned out to be 7 fold.
In the same order, the values of `NC(=O)[C@H]1CCCN1CCS(=O)(=O)N(Cc1ccc(-c2nnc(C(F)F)o2)cn1)c1ccccc1` [Compound 11848, (R)-1-(2-(N-((5-(5-(difluoromethyl)-1,3,4-oxadiazol-2-yl)pyridin-2-yl)methyl)-N-phenylsulfamoyl)ethyl)pyrrolidine-2-carboxamide] are 38.9 µM, 58.9 nM and 661 fold.
For the molecule `Cc1cccc(N(Cc2ccc(-c3nnc(C(F)F)o3)cc2)S(=O)(=O)C2CCN([C@H]3CC[C@H](F)CC3)CC2)c1` [Compound 11695, N-(4-(5-(difluoromethyl)-1,3,4-oxadiazol-2-yl)benzyl)-1-((1r,4r)-4-fluorocyclohexyl)-N-(m-tolyl)piperidine-4-sulfonamide], the IC50 was 61.4 µM in assay [1] and 200 nM in assay [2]. The “HDAC6 selectivity (fold)” value in assay [2] was determined as 306 fold.
In the same order, the values of `CS(=O)(=O)N(Cc1cnc(-c2nnc(C(F)F)o2)cn1)c1ccccc1` [Compound 11518, N-((5-(5-(difluoromethyl)-1,3,4-oxadiazol-2-yl)pyrazin-2-yl)methyl)-N-phenylmethanesulfonamide] are 39.8 µM, 68 nM and 586 fold.
Taken in the same sequence, the figures for `Cc1cccc(N(Cc2ccc(-c3nnc(C(F)F)o3)cc2)S(=O)(=O)C2CCN([C@H]3CC[C@@H](F)CC3)CC2)c1` [Compound 11696, N-(4-(5-(difluoromethyl)-1,3,4-oxadiazol-2-yl)benzyl)-1-((1s,4s)-4-fluorocyclohexyl)-N-(m-tolyl)piperidine-4-sulfonamide] were 51.4 µM, 178 nM and 289 fold.
